Results from patent US9365604B2, “Oligomer-nucleoside phosphate conjugates” (NEKTAR THERAPEUTICS, priority 2007, dated 2016).
Read-outs that look alike come from different tables or passages of the source.

Experiments:
DU145 = assay: Sulforhodamine B (SRB) growth inhibition assay; assay type: cell-based, Human; conditions: for ratio vs flox (GI50) DU145: GI50 of conjugate vs floxuridine; for GI50: SRB assay, cells exposed for 24 h, read-out: GI50 values (μM) DU145
Procedure: (§1) The aim was to determine the GI50 values for PEG-floxuridine conjugates against a panel of cell lines, and based on previous data from Xenograft studies. […] The test articles were solubilized in dimethylsulfoxide and were tested at four different molar (M) concentrations; 10^−4, 10^−5, 10^−6, M. GI50 (the concentration needed to reduce the growth of treated cells to half that of untreated control cells) was calculated for each condition ([(Ti−Tz)/(C-Tz)]×100=50, where Ti, Tz, and C refer to absorbance values obtained from each tested concentration, time zero, and control treatment, respectively).
as §1, with “The objective” for “The aim”, “the IC50” for “the GI50”, “for PEG-gemcitabine” for “for PEG-floxuridine”, “in dimethyl sulfoxide” for “in dimethylsulfoxide”, “10^−6, 10^−7” for “10^−6,”, “condition ([(Ti−Tz)/(C−Tz)]×100=50,” for “condition ([(Ti−Tz)/(C-Tz)]×100=50,”

A2780 = assay: Sulforhodamine B (SRB) growth inhibition assay; assay type: cell-based, Human; conditions: for ratio vs flox (GI50) A2780: GI50 of conjugate vs floxuridine; for GI50: SRB assay, cells exposed for 24 h, read-out: GI50 values (μM) A2780
Procedure: (§2) In Vitro Screening of PEG-Gemcitabine Monophosphate in Selected Human Cancer Cell Lines
as §1
as §1, with “The objective” for “The aim”, “the IC50” for “the GI50”, “for PEG-gemcitabine” for “for PEG-floxuridine”, “in dimethyl sulfoxide” for “in dimethylsulfoxide”, “10^−6, 10^−7” for “10^−6,”, “condition ([(Ti−Tz)/(C−Tz)]×100=50,” for “condition ([(Ti−Tz)/(C-Tz)]×100=50,”

COLO205 = assay: Sulforhodamine B (SRB) growth inhibition assay; assay type: cell-based, Human; conditions: COLO205; SRB assay, cells exposed for 24 h; read-out: GI50 values (μM) COLO205
Procedure: as §2, §1
as §1, with “The objective” for “The aim”, “the IC50” for “the GI50”, “for PEG-gemcitabine” for “for PEG-floxuridine”, “in dimethyl sulfoxide” for “in dimethylsulfoxide”, “10^−6, 10^−7” for “10^−6,”, “condition ([(Ti−Tz)/(C−Tz)]×100=50,” for “condition ([(Ti−Tz)/(C-Tz)]×100=50,”

HCT15 = assay: Sulforhodamine B (SRB) growth inhibition assay; assay type: cell-based, Human; conditions: SRB assay, cells exposed for 24 h, read-out: GI50 values (μM) HCT15
Procedure: as §2, §1
as §1, with “The objective” for “The aim”, “the IC50” for “the GI50”, “for PEG-gemcitabine” for “for PEG-floxuridine”, “in dimethyl sulfoxide” for “in dimethylsulfoxide”, “10^−6, 10^−7” for “10^−6,”, “condition ([(Ti−Tz)/(C−Tz)]×100=50,” for “condition ([(Ti−Tz)/(C-Tz)]×100=50,”

HT29 = assay: Sulforhodamine B (SRB) growth inhibition assay; assay type: cell-based, Human; conditions: for ratio vs flox (GI50) HT29: GI50 of conjugate vs floxuridine; for GI50: SRB assay, cells exposed for 24 h, read-out: GI50 values (μM) HT29
Procedure: as §2, §1
as §1, with “The objective” for “The aim”, “the IC50” for “the GI50”, “for PEG-gemcitabine” for “for PEG-floxuridine”, “in dimethyl sulfoxide” for “in dimethylsulfoxide”, “10^−6, 10^−7” for “10^−6,”, “condition ([(Ti−Tz)/(C−Tz)]×100=50,” for “condition ([(Ti−Tz)/(C-Tz)]×100=50,”

Hop62 = assay: Sulforhodamine B (SRB) growth inhibition assay; assay type: cell-based, Human; conditions: for ratio vs flox (GI50) Hop62: GI50 of conjugate vs floxuridine; for GI50: SRB assay, cells exposed for 24 h, read-out: GI50 values (μM) Hop62
Procedure: as §2, §1
as §1, with “The objective” for “The aim”, “the IC50” for “the GI50”, “for PEG-gemcitabine” for “for PEG-floxuridine”, “in dimethyl sulfoxide” for “in dimethylsulfoxide”, “10^−6, 10^−7” for “10^−6,”, “condition ([(Ti−Tz)/(C−Tz)]×100=50,” for “condition ([(Ti−Tz)/(C-Tz)]×100=50,”

MCF7 = assay: Sulforhodamine B (SRB) growth inhibition assay; assay type: cell-based, Human; conditions: for ratio vs flox (GI50) MCF7: GI50 of conjugate vs floxuridine; for GI50: SRB assay
Procedure: as §2, §1
as §1, with “The objective” for “The aim”, “the IC50” for “the GI50”, “for PEG-gemcitabine” for “for PEG-floxuridine”, “in dimethyl sulfoxide” for “in dimethylsulfoxide”, “10^−6, 10^−7” for “10^−6,”, “condition ([(Ti−Tz)/(C−Tz)]×100=50,” for “condition ([(Ti−Tz)/(C-Tz)]×100=50,”

NCI/ADR-RES = assay: Sulforhodamine B (SRB) growth inhibition assay; assay type: cell-based, Human; conditions: cells exposed for 24 h, read-out: GI50 values (μM) NCI/ADR-RES
Procedure: as §2
(§3) The aim was to determine the GI50 values for PEG-floxuridine conjugates against a panel of cell lines, and based on previous data from Xenograft studies. The cells were exposed for 24 h, and cell viability assessed by using the Sulphorhodamine (SRB) assay. The test articles were solubilized in dimethylsulfoxide and were tested at four different molar (M) concentrations; 10^−4, 10^−5, 10^−6, M. GI50 (the concentration needed to reduce the growth of treated cells to half that of untreated control cells) was calculated for each condition ([(Ti−Tz)/(C-Tz)]×100=50, where Ti, Tz, and C refer to absorbance values obtained from each tested concentration, time zero, and control treatment, respectively).
as §3, with “The objective” for “The aim”, “the IC50” for “the GI50”, “for PEG-gemcitabine” for “for PEG-floxuridine”, “in dimethyl sulfoxide” for “in dimethylsulfoxide”, “10^−6, 10^−7” for “10^−6,”, “condition ([(Ti−Tz)/(C−Tz)]×100=50,” for “condition ([(Ti−Tz)/(C-Tz)]×100=50,”

HCT-116 = assay: In vitro cytotoxicity assay (CellTiter-Glo); assay type: cell-based
Procedure: (§4) The objective of these studies were to determine the IC50 values for PEG-floxuridine conjugates against floxuridine-resistant cell lines based on data from previous Xenograft studies. The cells were exposed for 72 h, and cell viability assessed by using the CellTiter-Glo assay.
(§5) The objective of these studies was to determine the IC50 values for PEG-gemcitabine conjugates against gemcitabine-resistant cell lines based on data from previous Xenograft studies. The cells were exposed for 72 h, and cell viability assessed by using the CellTiter-Glo assay.

HT-29 = assay: In vitro cytotoxicity assay (CellTiter-Glo); assay type: cell-based
Procedure: as §4, §5

MIA PaCa-2 = assay: In vitro cytotoxicity assay (CellTiter-Glo); assay type: cell-based
Procedure: as §4, §5

CAKI-1 = assay: In vitro cytotoxicity assay (CellTiter-Glo); assay type: cell-based
MDCK cells [1] = assay: Bi-directional permeability in MDCK cells
Excerpt: (§6) Bi-Directional Permeability of PEG-Floxuridine Conjugates in Caco-2 and MDCK Cells

Caco-2 cells [2] = assay: Bi-directional permeability in Caco-2 cells
Excerpt: as §6

PANC-1 = conditions: Zajchowski et al. 2005; cited from earlier work
Caco-2 cells [3] = tested on: Caco-2 cells
Excerpt: as §6

MDCK cells [4] = tested on: MDCK cells
Excerpt: as §6

in vitro [5] = conditions: human, Caco-2
Excerpt: as §6

in vitro [6] = conditions: dog, MDCK
Excerpt: as §6

[7] = Bi-directional permeability in MDCK cells; conditions: dog
Excerpt: as §6

[8] = Bi-directional permeability in Caco-2 cells; conditions: human
Excerpt: as §6

[9] = cells exposed for 24 h, read-out: GI50 values (μM) MCF7

COCCOCCOCCOCCOCCOCCOCCOP(=O)(O)OC[C@H]1O[C@@H](n2cc(F)c(=O)[nH]c2=O)C[C@@H]1O [Floxuridine Mono (mPEG7), 5′-floxuridine methoxy hepta(ethylene glycol) phosphate]
ratio vs flox (GI50) DU145 (DU145): 0.005 | GI50 (DU145): 0.13 µM | ratio vs flox (GI50) A2780 (A2780): 35 | GI50 (A2780): 2.3 µM | GI50 (COLO205): 1.9 µM | GI50 (HCT15): ~32 µM | ratio vs flox (GI50) HT29 (HT29): 4 | GI50 (HT29): > 100 µM | ratio vs flox (GI50) Hop62 (Hop62): 417 | GI50 (Hop62): > 100 µM | ratio vs flox (GI50) MCF7 (MCF7): 0.9 | GI50 (MCF7; 48 h drug exposure, read-out: GI50 in MCF7): 2.2 µM | GI50 (MCF7; [9]): 0.13 µM | GI50 (NCI/ADR-RES): < 0.1 µM | Ratio vs floxuridine (IC50) HCT-116 (HCT-116): 2 | IC50 (HCT-116; 72 h exposure, CellTiter-Glo): 48 nM | Ratio vs floxuridine (IC50) HT-29 (HT-29): 1 | IC50 (HT-29; 72 h exposure, CellTiter-Glo): 76 nM | Ratio vs floxuridine (IC50) MIA PaCa-2 (MIA PaCa-2): 2 | IC50 (MIA PaCa-2; 72 h exposure, CellTiter-Glo): 96 nM | Ratio vs floxuridine (IC50) CAKI-1 (CAKI-1): 1 | IC50 (CAKI-1; 72 h exposure, CellTiter-Glo): 157 nM | Papp A -> B (MDCK cells [1]): <0.06 10^−6 cm/s | Papp B -> A (MDCK cells [1]): <0.08 10^−6 cm/s | Significant efflux (MDCK cells [1]): No | percent recovery A -> B (MDCK cells [1]): 100% | percent recovery B -> A (MDCK cells [1]): 90% | Papp A -> B (Caco-2 cells [2]): 0.14 10^−6 cm/s | Papp B -> A (Caco-2 cells [2]): 0.06 10^−6 cm/s | Papp B-A/Papp A-B (Caco-2 cells [2]): 0.4 | Significant efflux (Caco-2 cells [2]): No | percent recovery A -> B (Caco-2 cells [2]): 79% | percent recovery B -> A (Caco-2 cells [2]): 89%

Nc1ccn([C@@H]2S[C@H](CO)[C@@H](O)[C@@H]2F)c(=O)n1 [4′-thio-FAC]
resistance of PANC-1 in vitro (shown previously) (PANC-1): resistant

CCCCCOC(=O)Nc1nc(=O)n([C@@H]2O[C@H](C)[C@@H](O)[C@H]2O)cc1F [Capecitabine]
Absorption potential (Caco-2 cells [3]): High | Significant efflux (Caco-2 cells [3]): Yes | permeability across Caco-2 monolayers (in words) (Caco-2 cells [3]): high permeability | Papp B-A/Papp A-B (Caco-2 cells [3]; human): 3.9 | Significant efflux (MDCK cells [4]): No | permeability through MDCK monolayers (in words) (MDCK cells [4]): relatively poor permeability | Papp B-A/Papp A-B (MDCK cells [4]; dog): 0.9 | Papp A→B (in vitro [5]): 2.22 ×10⁻⁶ cm/s | Papp B→A (in vitro [5]): 8.71 ×10⁻⁶ cm/s | efflux ratio (in vitro [5]): 3.9 | Papp A→B (in vitro [6]): 0.16 ×10⁻⁶ cm/s | Papp B→A (in vitro [6]): 0.14 ×10⁻⁶ cm/s | efflux ratio (in vitro [6]): 0.9 | recovery ([7]; percent recovery A -> B): 104% | recovery ([7]; percent recovery B -> A): 99% | recovery ([8]; Caco-2, percent recovery A -> B): 110% | recovery ([8]; Caco-2, percent recovery B -> A): 99%

COCCOCCOCCOP(=O)(OCCOCCOCCOC)OC[C@H]1O[C@@H](n2cc(F)c(=O)[nH]c2=O)C[C@@H]1O [Floxuridine Di (mPEG3), 5′-floxuridine di-methoxy tri(ethylene glycol) phosphate]
ratio vs flox (GI50) DU145 (DU145): 4 | GI50 (DU145): > 100 µM | ratio vs flox (GI50) A2780 (A2780): 1538 | GI50 (A2780): > 100 µM | ratio vs flox (GI50) HT29 (HT29): 4 | GI50 (HT29): > 100 µM | ratio vs flox (GI50) Hop62 (Hop62): 417 | GI50 (Hop62): > 100 µM | ratio vs flox (GI50) MCF7 (MCF7): 667 | GI50 (MCF7; [9]): > 100 µM
